In PubChem BioAssay AID1963444 (Molecular Pharmacology Branch, DTP, NCI, 2024):

System: HSSY-II complex spheroid growth, percent test/control
Assay: Anticancer human tumor HSSY-II cell line growth inhibition [Asc];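 note: spheroids exposed to drug for 7 days before reading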
Details: for IC50: curve of first compound; for viability, T/C: stronger effect = lower value; active = viability on the fitted dose curve at most 10% of control; inactive = the rest
How it was run: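 Concentration series start at each agent's clinical Cmax, or at 10 microM when none is established, and drop in half-log steps; agents are applied alone or together to complex spheroids built with HUVEC and hMSC.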

[1] = second compound 0.1 µM, first compound 0.00316 µM
[2] = second compound 0.1 µM, first compound 0.01 µM
[3] = second compound 0.1 µM, first compound 0.0316 µM
[4] = second compound 0.1 µM, first compound 0.1 µM
[5] = second compound 0.1 µM, first compound 0.316 µM
[6] = second compound 0.1 µM, first compound 1 µM
[7] = second compound 0.316 µM, first compound 0.00316 µM
[8] = second compound 0.316 µM, first compound 0.01 µM
[9] = second compound 0.316 µM, first compound 0.0316 µM
[10] = second compound 0.316 µM, first compound 0.1 µM
[11] = second compound 0.316 µM, first compound 0.316 µM
[12] = second compound 0.316 µM, first compound 1 µM
[13] = second compound 1 µM, first compound 0.00316 µM
[14] = second compound 1 µM, first compound 0.01 µM
[15] = second compound 1 µM, first compound 0.0316 µM
[16] = second compound 1 µM, first compound 0.1 µM
[17] = second compound 1 µM, first compound 0.316 µM
[18] = second compound 1 µM, first compound 1 µM
[19] = second compound 3.16 µM, first compound 0.00316 µM
[20] = second compound 3.16 µM, first compound 0.01 µM
[21] = second compound 3.16 µM, first compound 0.0316 µM
[22] = second compound 3.16 µM, first compound 0.1 µM
[23] = second compound 3.16 µM, first compound 0.316 µM
[24] = second compound 3.16 µM, first compound 1 µM
[25] = second compound 10 µM, first compound 0.00316 µM
[26] = second compound 10 µM, first compound 0.01 µM
[27] = second compound 10 µM, first compound 0.0316 µM
[28] = second compound 10 µM, first compound 0.1 µM
[29] = second compound 10 µM, first compound 0.316 µM
[30] = second compound 10 µM, first compound 1 µM

CCN1CCN(Cc2ccc(Nc3ncc(F)c(-c4cc(F)c5nc(C)n(C(C)C)c5c4)n3)nc2)CC1 + Cc1c(S(C)(=O)=O)c(-c2cc(F)cc(N3CCN(c4ccc(NS(=O)(=O)c5ccc(NC(CCN6CCC(C(=O)OCCCP(=O)(O)O)CC6)CSc6ccccc6)c(S(=O)(=O)C(F)(F)F)c5)cc4)CC3)c2)c(-c2ccc(Cl)cc2)n1C(C)C
112 nM: IC50 (second compound 3.16 µM)
146 nM: IC50 (second compound 0.316 µM)
69.9 nM: IC50 (second compound 10 µM)
259 nM: IC50 (second compound 0.1 µM)
135 nM: IC50 (second compound 1 µM)
inactive: viability, T/C [1] 90.8% | viability, T/C [2] 105% | viability, T/C [3] 71.5% | viability, T/C [4] 68.5% | viability, T/C [5] 47.5% | viability, T/C [6] 26.7% | viability, T/C [7] 92.4% | viability, T/C [8] 88.2% | viability, T/C [9] 75.6% | viability, T/C [10] 52.8% | viability, T/C [11] 40% | viability, T/C [12] 20.7% | viability, T/C [13] 94.7% | viability, T/C [14] 83.1% | viability, T/C [15] 70% | viability, T/C [16] 57.6% | viability, T/C [17] 34.8% | viability, T/C [18] 24.9% | viability, T/C [19] 80.9% | viability, T/C [20] 91.8% | viability, T/C [21] 74.2% | viability, T/C [22] 49% | viability, T/C [23] 38.2% | viability, T/C [24] 23.1% | viability, T/C [25] 83.9% | viability, T/C [26] 81.3% | viability, T/C [27] 60.7% | viability, T/C [28] 41.6% | viability, T/C [29] 40.3% | viability, T/C [30] 24.9%

COc1c(OCCCN2CCOCC2)ccc2c3n(c(=NC(=O)c4cnc(N)nc4)nc12)CCN3 + Cc1c(S(C)(=O)=O)c(-c2cc(F)cc(N3CCN(c4ccc(NS(=O)(=O)c5ccc(NC(CCN6CCC(C(=O)OCCCP(=O)(O)O)CC6)CSc6ccccc6)c(S(=O)(=O)C(F)(F)F)c5)cc4)CC3)c2)c(-c2ccc(Cl)cc2)n1C(C)C
26.4 nM: IC50 (second compound 10 µM)
inactive: viability, T/C [1] 86.7% | viability, T/C [2] 72.9% | viability, T/C [3] 50.5% | viability, T/C [4] 35.9% | viability, T/C [5] 20.9% | viability, T/C [6] 10.2% | viability, T/C [7] 86.4% | viability, T/C [8] 74.1% | viability, T/C [9] 48.5% | viability, T/C [10] 28.6% | viability, T/C [11] 19.6% | viability, T/C [12] 8.57% | viability, T/C [13] 90.1% | viability, T/C [14] 67% | viability, T/C [15] 45% | viability, T/C [16] 30.4% | viability, T/C [17] 17.7% | viability, T/C [19] 82.1% | viability, T/C [20] 67.9% | viability, T/C [21] 42.4% | viability, T/C [22] 34.5% | viability, T/C [23] 16.2% | viability, T/C [25] 77.6% | viability, T/C [26] 68.9% | viability, T/C [27] 42.9% | viability, T/C [28] 30.7% | viability, T/C [29] 16.4%
37.6 nM: IC50 (second compound 0.1 µM)
active: viability, T/C [18] 7.86% | viability, T/C [24] 6.36% | viability, T/C [30] 3.47%
26.3 nM: IC50 (second compound 3.16 µM)
31.7 nM: IC50 (second compound 0.316 µM)
25.4 nM: IC50 (second compound 1 µM)

NC(=O)C(=Cn1cnc(-c2cc(C(F)(F)F)cc(C(F)(F)F)c2)n1)c1cncnc1 + Cc1c(S(C)(=O)=O)c(-c2cc(F)cc(N3CCN(c4ccc(NS(=O)(=O)c5ccc(NC(CCN6CCC(C(=O)OCCCP(=O)(O)O)CC6)CSc6ccccc6)c(S(=O)(=O)C(F)(F)F)c5)cc4)CC3)c2)c(-c2ccc(Cl)cc2)n1C(C)C
inactive: viability, T/C (second compound 0.1 µM, first compound 0.000949 µM) 87.7% | viability, T/C (second compound 0.1 µM, first compound 0.003 µM) 86% | viability, T/C (second compound 0.1 µM, first compound 0.00949 µM) 65.4% | viability, T/C (second compound 0.1 µM, first compound 0.03 µM) 37.4% | viability, T/C (second compound 0.1 µM, first compound 0.0949 µM) 9.64% | viability, T/C (second compound 0.316 µM, first compound 0.000949 µM) 99.8% | viability, T/C (second compound 0.316 µM, first compound 0.003 µM) 83.5% | viability, T/C (second compound 0.316 µM, first compound 0.00949 µM) 71.9% | viability, T/C (second compound 0.316 µM, first compound 0.03 µM) 36.1% | viability, T/C (second compound 1 µM, first compound 0.000949 µM) 96.1% | viability, T/C (second compound 1 µM, first compound 0.003 µM) 80% | viability, T/C (second compound 1 µM, first compound 0.00949 µM) 61.3% | viability, T/C (second compound 1 µM, first compound 0.03 µM) 30% | viability, T/C (second compound 3.16 µM, first compound 0.000949 µM) 91.1% | viability, T/C (second compound 3.16 µM, first compound 0.003 µM) 84.3% | viability, T/C (second compound 3.16 µM, first compound 0.00949 µM) 68.1% | viability, T/C (second compound 3.16 µM, first compound 0.03 µM) 24% | viability, T/C (second compound 10 µM, first compound 0.000949 µM) 84.9% | viability, T/C (second compound 10 µM, first compound 0.003 µM) 89.6% | viability, T/C (second compound 10 µM, first compound 0.00949 µM) 56.5% | viability, T/C (second compound 10 µM, first compound 0.03 µM) 26.9%
18.3 nM: IC50 (second compound 0.316 µM)
17.9 nM: IC50 (second compound 0.1 µM)
active: viability, T/C (second compound 0.1 µM, first compound 0.3 µM) 0.51% | viability, T/C (second compound 0.316 µM, first compound 0.0949 µM) 6% | viability, T/C (second compound 0.316 µM, first compound 0.3 µM) 0.34% | viability, T/C (second compound 1 µM, first compound 0.0949 µM) 5.9% | viability, T/C (second compound 1 µM, first compound 0.3 µM) 0.23% | viability, T/C (second compound 3.16 µM, first compound 0.0949 µM) 2.17% | viability, T/C (second compound 3.16 µM, first compound 0.3 µM) 0.24% | viability, T/C (second compound 10 µM, first compound 0.0949 µM) 1.88% | viability, T/C (second compound 10 µM, first compound 0.3 µM) 0.28%
13.3 nM: IC50 (second compound 10 µM)
15.1 nM: IC50 (second compound 3.16 µM)
13.6 nM: IC50 (second compound 1 µM)

NC1CCC(NC2CC2c2ccccc2)CC1 (stereo not given) + Cc1c(S(C)(=O)=O)c(-c2cc(F)cc(N3CCN(c4ccc(NS(=O)(=O)c5ccc(NC(CCN6CCC(C(=O)OCCCP(=O)(O)O)CC6)CSc6ccccc6)c(S(=O)(=O)C(F)(F)F)c5)cc4)CC3)c2)c(-c2ccc(Cl)cc2)n1C(C)C
> 100 nM: IC50 (second compound 0.1 µM) | IC50 (second compound 0.316 µM) | IC50 (second compound 1 µM) | IC50 (second compound 3.16 µM) | IC50 (second compound 10 µM)
inactive: viability, T/C (second compound 0.1 µM, first compound 0.000316 µM) 58.9% | viability, T/C (second compound 0.1 µM, first compound 0.001 µM) 69.2% | viability, T/C [1] 64% | viability, T/C [2] 56.5% | viability, T/C [3] 60.3% | viability, T/C [4] 66.5% | viability, T/C (second compound 0.316 µM, first compound 0.000316 µM) 77% | viability, T/C (second compound 0.316 µM, first compound 0.001 µM) 67.3% | viability, T/C [7] 58.9% | viability, T/C [8] 60.6% | viability, T/C [9] 60% | viability, T/C [10] 64.5% | viability, T/C (second compound 1 µM, first compound 0.000316 µM) 70.3% | viability, T/C (second compound 1 µM, first compound 0.001 µM) 60.8% | viability, T/C [13] 57.5% | viability, T/C [14] 59% | viability, T/C [15] 60.6% | viability, T/C [16] 62.8% | viability, T/C (second compound 3.16 µM, first compound 0.000316 µM) 73.1% | viability, T/C (second compound 3.16 µM, first compound 0.001 µM) 62.1% | viability, T/C [19] 60.8% | viability, T/C [20] 61.1% | viability, T/C [21] 59.9% | viability, T/C [22] 61.4% | viability, T/C (second compound 10 µM, first compound 0.000316 µM) 66% | viability, T/C (second compound 10 µM, first compound 0.001 µM) 66.5% | viability, T/C [25] 70.2% | viability, T/C [26] 57.9% | viability, T/C [27] 62.3% | viability, T/C [28] 66.6%

O=C(c1ccc(F)c(F)c1Nc1ccc(I)cc1F)N1CC(O)([C@@H]2CCCCN2)C1 + Cc1c(S(C)(=O)=O)c(-c2cc(F)cc(N3CCN(c4ccc(NS(=O)(=O)c5ccc(NC(CCN6CCC(C(=O)OCCCP(=O)(O)O)CC6)CSc6ccccc6)c(S(=O)(=O)C(F)(F)F)c5)cc4)CC3)c2)c(-c2ccc(Cl)cc2)n1C(C)C
563 nM: IC50 (second compound 10 µM)
511 nM: IC50 (second compound 3.16 µM)
576 nM: IC50 (second compound 1 µM)
inactive: viability, T/C [1] 97.4% | viability, T/C [2] 111% | viability, T/C [3] 106% | viability, T/C [4] 112% | viability, T/C [5] 77.6% | viability, T/C [6] 22.9% | viability, T/C [7] 110% | viability, T/C [8] 107% | viability, T/C [9] 99.5% | viability, T/C [10] 117% | viability, T/C [11] 79.3% | viability, T/C [12] 22.9% | viability, T/C [13] 115% | viability, T/C [14] 110% | viability, T/C [15] 114% | viability, T/C [16] 110% | viability, T/C [17] 81.8% | viability, T/C [18] 20.8% | viability, T/C [19] 107% | viability, T/C [20] 101% | viability, T/C [21] 105% | viability, T/C [22] 98.7% | viability, T/C [23] 71.8% | viability, T/C [24] 19.6% | viability, T/C [25] 96.2% | viability, T/C [26] 96.4% | viability, T/C [27] 104% | viability, T/C [28] 104% | viability, T/C [29] 81.7% | viability, T/C [30] 18.1%
575 nM: IC50 (second compound 0.316 µM)
566 nM: IC50 (second compound 0.1 µM)
